Assay results published in article PMC6254361, “The properties of Msh2–Msh6 ATP binding mutants suggest a signal amplification mechanism in DNA mismatch repair” (The Journal of Biological Chemistry, 2018).

Target: T1, Msh2–Msh6 (Saccharomyces cerevisiae, UniProt P25847+Q03834, Q03834:K988A)
T1 sequence (P25847 1-964): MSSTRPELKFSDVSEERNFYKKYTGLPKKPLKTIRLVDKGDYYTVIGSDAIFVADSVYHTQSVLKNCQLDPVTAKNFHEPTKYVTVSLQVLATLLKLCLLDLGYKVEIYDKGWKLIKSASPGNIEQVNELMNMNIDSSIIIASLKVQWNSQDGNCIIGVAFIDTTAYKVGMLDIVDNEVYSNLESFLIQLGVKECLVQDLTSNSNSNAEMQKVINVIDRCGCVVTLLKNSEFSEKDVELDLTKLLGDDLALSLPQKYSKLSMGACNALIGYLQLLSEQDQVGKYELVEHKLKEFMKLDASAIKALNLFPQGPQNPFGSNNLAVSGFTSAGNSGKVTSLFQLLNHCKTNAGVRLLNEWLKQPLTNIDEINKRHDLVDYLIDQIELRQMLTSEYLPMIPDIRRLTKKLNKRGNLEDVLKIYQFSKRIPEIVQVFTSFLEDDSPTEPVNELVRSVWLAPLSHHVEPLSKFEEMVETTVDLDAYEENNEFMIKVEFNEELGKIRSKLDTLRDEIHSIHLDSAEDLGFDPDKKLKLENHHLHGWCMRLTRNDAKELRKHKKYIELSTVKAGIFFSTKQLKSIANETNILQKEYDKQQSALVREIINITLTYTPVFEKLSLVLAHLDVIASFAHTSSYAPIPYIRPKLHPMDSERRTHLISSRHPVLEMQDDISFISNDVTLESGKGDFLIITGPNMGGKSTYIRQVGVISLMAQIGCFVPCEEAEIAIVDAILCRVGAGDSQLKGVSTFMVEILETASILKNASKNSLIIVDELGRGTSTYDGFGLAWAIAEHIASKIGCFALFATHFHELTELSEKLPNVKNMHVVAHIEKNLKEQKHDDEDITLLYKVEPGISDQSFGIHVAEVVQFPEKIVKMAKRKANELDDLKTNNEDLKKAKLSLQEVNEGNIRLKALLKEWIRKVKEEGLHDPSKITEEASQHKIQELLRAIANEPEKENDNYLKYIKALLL
T1 sequence (Q03834 1-1242 K988A): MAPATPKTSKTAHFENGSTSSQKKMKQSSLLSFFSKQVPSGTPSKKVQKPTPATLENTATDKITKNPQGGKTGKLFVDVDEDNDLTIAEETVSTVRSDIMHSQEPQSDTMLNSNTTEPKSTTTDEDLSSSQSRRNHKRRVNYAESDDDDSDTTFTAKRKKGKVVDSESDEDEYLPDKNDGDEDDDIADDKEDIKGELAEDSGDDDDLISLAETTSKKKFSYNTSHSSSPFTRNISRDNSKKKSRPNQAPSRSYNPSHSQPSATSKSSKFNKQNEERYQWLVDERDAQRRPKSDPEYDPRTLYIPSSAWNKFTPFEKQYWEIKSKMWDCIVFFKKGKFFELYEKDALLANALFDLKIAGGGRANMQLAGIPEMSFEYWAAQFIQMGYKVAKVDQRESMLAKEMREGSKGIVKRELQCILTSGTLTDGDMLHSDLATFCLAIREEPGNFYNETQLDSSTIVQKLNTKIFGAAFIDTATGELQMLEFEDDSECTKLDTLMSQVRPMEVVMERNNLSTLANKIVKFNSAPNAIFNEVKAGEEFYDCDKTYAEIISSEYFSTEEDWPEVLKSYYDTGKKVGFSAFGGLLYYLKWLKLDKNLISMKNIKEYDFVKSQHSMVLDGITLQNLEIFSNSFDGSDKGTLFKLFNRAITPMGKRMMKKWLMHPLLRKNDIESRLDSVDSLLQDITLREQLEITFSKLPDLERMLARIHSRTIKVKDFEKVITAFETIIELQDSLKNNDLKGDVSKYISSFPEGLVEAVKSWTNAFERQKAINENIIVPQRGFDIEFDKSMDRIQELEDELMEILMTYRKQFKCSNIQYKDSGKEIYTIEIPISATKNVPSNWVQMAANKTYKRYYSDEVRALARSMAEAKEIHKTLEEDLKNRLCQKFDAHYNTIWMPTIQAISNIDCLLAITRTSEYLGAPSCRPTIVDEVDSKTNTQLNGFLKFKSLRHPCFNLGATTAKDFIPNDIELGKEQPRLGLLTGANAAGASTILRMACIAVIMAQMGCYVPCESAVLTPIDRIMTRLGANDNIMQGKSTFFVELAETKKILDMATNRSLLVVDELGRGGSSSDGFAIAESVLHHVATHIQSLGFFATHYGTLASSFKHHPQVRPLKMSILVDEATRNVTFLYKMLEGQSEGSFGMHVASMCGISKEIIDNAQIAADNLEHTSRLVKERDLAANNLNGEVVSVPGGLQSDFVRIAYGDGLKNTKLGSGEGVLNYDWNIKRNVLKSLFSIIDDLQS
Assay: UV cross-linking of [γ-32P]ATP, SDS-PAGE, phosphorimaging
Assay type: binding
Conditions: labelled compound; no Mg2+, EDTA, pH 8, on ice; Msh2 site at 60 μM ATP, Msh6 site at 1 μM ATP

With `Nc1ncnc2c1ncn2[C@@H]1O[C@H](COP(=O)(O)OP(=O)(O)OP(=O)(O)O)[C@@H](O)[C@H]1O` [ATP] the “relative ATP binding” value was “Msh2–Msh6(K988A) and Msh2–Msh6(K988R) mutant complexes had partial ATP binding defects at the Msh2 subunit”.
